This is an account of results in patent US8080558B2, “4-(tetrazol-5-yl)-quinazoline derivatives as anti-cancer agent” (Natco Pharma Limited, priority 2007, dated 2011).

The test concerns A549 cells. The test is described as follows: Matrigel invasion assay (modified Boyden chamber), A549 cells. The note with it: 100 to 800 ng/ml. The class given is cell-based. The procedure: The in vitro invasiveness of H1299 or A549 cells in the presence of various concentrations of NRC compounds (as determined by MTT assay) was assessed using a modified Boyden chamber assay. Cells were treated with these compounds for 48 h. 1×10^6 cells were suspended in 600 μl of serum-free medium supplemented with 0.2% BSA and placed in the upper compartment of the transwell chambers (Corning Costar Fischer Scientific Cat #07-200-158, Pittsburgh Pa.) coated with Matrigel (0.7 mg/ml). The lower compartment of the chamber was filled with 200 μl of serum-medium and the cells were allowed to migrate for 24 h. After incubation, the cells were fixed and stained with Hema-3 and quantified as previously described (Mohanam, et al. 1993). The migrated cells were quantified as percent invasion.
Matrigel invasion was performed as described in materials and methods. […] Using H1299 cells similar retardation patterns of invasion was observed.

As to `C#Cc1cccc(Nc2ncnc3cc(OCCOC)c(OCCOC)cc23)c1` [Erlotinib], the invasiveness entry is on record as “decreased invasiveness in a dose dependent manner”.
